# Measured values: PubChem BioAssay AID1259407 (Chemical Carcinogenesis Research Information System (CCRIS), 2018)
# Active and inactive are the calls of the source. The rule behind the calls is not given here.
# System: CCRIS mutagenicity, Ames/micronucleus/aberration tests
# Assay: CCRIS mutagenicity studies
# [1] = Test System: AMES SALMONELLA TYPHIMURIUM, Strain/Indicator: TA97, Metabolic Activation: NONE, Method: STANDARD PLATE
# [2] = Test System: AMES SALMONELLA TYPHIMURIUM, Strain/Indicator: TA97, Metabolic Activation: RAT, LIVER, S-9, AROCLOR 1254, Method: STANDARD PLATE
# [3] = Test System: AMES SALMONELLA TYPHIMURIUM, Strain/Indicator: TA98, Metabolic Activation: NONE, Method: STANDARD PLATE
# [4] = Test System: AMES SALMONELLA TYPHIMURIUM, Strain/Indicator: TA98, Metabolic Activation: RAT, LIVER, S-9, AROCLOR 1254, Method: STANDARD PLATE
# [5] = Test System: AMES SALMONELLA TYPHIMURIUM, Strain/Indicator: TA100, Metabolic Activation: NONE, Method: STANDARD PLATE
# [6] = Test System: AMES SALMONELLA TYPHIMURIUM, Strain/Indicator: TA100, Metabolic Activation: RAT, LIVER, S-9, AROCLOR 1254, Method: STANDARD PLATE
# [7] = Test System: AMES SALMONELLA TYPHIMURIUM, Strain/Indicator: TA1535, Metabolic Activation: NONE, Method: STANDARD PLATE
# [8] = Test System: AMES SALMONELLA TYPHIMURIUM, Strain/Indicator: TA1535, Metabolic Activation: RAT, LIVER, S-9, AROCLOR 1254, Method: STANDARD PLATE
# [9] = Test System: AMES SALMONELLA TYPHIMURIUM, Strain/Indicator: TA1538, Metabolic Activation: NONE, Method: STANDARD PLATE
# [10] = Test System: AMES SALMONELLA TYPHIMURIUM, Strain/Indicator: TA100, Metabolic Activation: NONE, Method: PREINCUBATION
structure (smiles),measurement,setting,value
CC(C)C[C@H](NC(=O)COc1cc(Cl)c(Cl)cc1Cl)C(=O)O,mutagenic call,[1],inactive; negative
same,mutagenic call,[2],inactive; negative
same,mutagenic call,[3],inactive; negative
same,mutagenic call,[4],inactive; negative
same,mutagenic call,[5],inactive; negative
same,mutagenic call,[6],inactive; negative
same,mutagenic call,[7],inactive; negative
same,mutagenic call,[8],inactive; negative
same,mutagenic call,[9],inactive; negative
same,mutagenic call,"Test System: AMES SALMONELLA TYPHIMURIUM, Strain/Indicator: TA1538, Metabolic Activation: RAT, LIVER, S-9, AROCLOR 1254, Method: STANDARD PLATE",inactive; negative
Nc1nc(-c2ccc([N+](=O)[O-])o2)cs1,mutagenic call,"Test System: AMES SALMONELLA TYPHIMURIUM, Strain/Indicator: TA100, Metabolic Activation: RAT, LIVER, S-9, KC500 OR PHENOBARBITAL, Method: LIQUID SUSPENSION",active; positive
same,mutagenic call,"Test System: E. COLI WP2, Strain/Indicator: WP2, Metabolic Activation: NONE, Method: SPOT",active; positive
Fc1cc2cccnc2c2ccccc12,mutagenic call,"Test System: AMES SALMONELLA TYPHIMURIUM, Strain/Indicator: TA100, Metabolic Activation: RAT, LIVER, S-9, PHENOBARBITAL AND 5,6-BENZOFLAVONE, Method: PREINCUBATION",active; positive
O=C(O)c1ccc(Cl)cc1Cl,mutagenic call,"Test System: Ames Salmonella typhimurium, Strain/Indicator: TA98, Metabolic Activation: None, Method: Preincubation",inactive; negative. precipitation at highest dose.
same,mutagenic call,"Test System: Ames Salmonella typhimurium, Strain/Indicator: TA98, Metabolic Activation: Rat, Liver, S9, Phenobarbital and 5,6-benzoflavone, Method: Preincubation",inactive; negative. precipitation at highest dose.
same,mutagenic call,"Test System: Ames Salmonella typhimurium, Strain/Indicator: TA100, Metabolic Activation: None, Method: Preincubation",inactive; negative. precipitation at highest dose.
same,mutagenic call,"Test System: Ames Salmonella typhimurium, Strain/Indicator: TA100, Metabolic Activation: Rat, Liver, S9, Phenobarbital and 5,6-benzoflavone, Method: Preincubation",inactive; negative. precipitation at highest dose.
same,mutagenic call,"Test System: Ames Salmonella typhimurium, Strain/Indicator: TA1535, Metabolic Activation: None, Method: Preincubation",inactive; negative. precipitation at highest dose.
same,mutagenic call,"Test System: Ames Salmonella typhimurium, Strain/Indicator: TA1535, Metabolic Activation: Rat, Liver, S9, Phenobarbital and 5,6-benzoflavone, Method: Preincubation",inactive; negative. precipitation at highest dose.
same,mutagenic call,"Test System: Ames Salmonella typhimurium, Strain/Indicator: TA1537, Metabolic Activation: None, Method: Preincubation",inactive; negative. precipitation at highest dose.
same,mutagenic call,"Test System: Ames Salmonella typhimurium, Strain/Indicator: TA1537, Metabolic Activation: Rat, Liver, S9, Phenobarbital and 5,6-benzoflavone, Method: Preincubation",inactive; negative. precipitation at highest dose.
same,mutagenic call,"Test System: E. coli, Strain/Indicator: WP2uvrA/pKM101, Metabolic Activation: None, Method: Preincubation",inactive; negative. precipitation at highest dose.
same,mutagenic call,"Test System: E. coli, Strain/Indicator: WP2uvrA/pKM101, Metabolic Activation: Rat, Liver, S9, Phenobarbital and 5,6-benzoflavone, Method: Preincubation",inactive; negative. precipitation at highest dose.
COc1ccc(-c2nc(-c3ccccc3)c(-c3ccccc3)[nH]2)cc1OC,mutagenic call,[3],active; positive
same,mutagenic call,[5],active; positive
same,mutagenic call,"Test System: AMES SALMONELLA TYPHIMURIUM, Strain/Indicator: TA100, Metabolic Activation: RAT LIVER S-9, 3-METHYLCHOLANTHRENE, SODIUM PHENOBARBITAL, Method: STANDARD PLATE",active; positive
O=C(n1ccnc1)n1ccnc1,mutagenic call,[3],inactive; negative
same,mutagenic call,[4],inactive; negative
same,mutagenic call,[5],inactive; negative
same,mutagenic call,[6],inactive; negative
same,mutagenic call,[7],inactive; negative
same,mutagenic call,[8],inactive; negative
same,mutagenic call,"Test System: AMES SALMONELLA TYPHIMURIUM, Strain/Indicator: TA1537, Metabolic Activation: NONE, Method: STANDARD PLATE",inactive; negative
same,mutagenic call,"Test System: AMES SALMONELLA TYPHIMURIUM, Strain/Indicator: TA1537, Metabolic Activation: RAT, LIVER, S-9, AROCLOR 1254, Method: STANDARD PLATE",inactive; negative
O=[N+]([O-])c1cccc(CO)c1,mutagenic call,"Test System: AMES SALMONELLA TYPHIMURIUM, Strain/Indicator: TA98, Metabolic Activation: NONE, Method: PREINCUBATION",inactive; negative
same,mutagenic call,[10],inactive; negative
same,mutagenic call,"Test System: AMES SALMONELLA TYPHIMURIUM, Strain/Indicator: TA100, Metabolic Activation: RAT, LIVER, S-9, AROCLOR 1254, Method: PREINCUBATION",inactive; negative
CC(CN(CC(=O)O)CC(=O)O)N(CC(=O)O)CC(=O)O (stereo not given),mutagenic call,"Test System: CHINESE HAMSTER V-79, Strain/Indicator: V-79/OUABAIN, Metabolic Activation: NONE, Method: STANDARD PLATE",active; positive
same,mutagenic call,"Test System: UDS RODENT CELLS, Strain/Indicator: THY INCORP (NON-S-PHASE), Metabolic Activation: NONE, Method: AUTORADIOGRAPHY",active; positive
Nc1c(O)cc(Cc2cc(Cl)c(N)c(OS(=O)(=O)O)c2)cc1Cl,mutagenic call,"Test System: AMES SALMONELLA TYPHIMURIUM, Strain/Indicator: TA1538, Metabolic Activation: NONE, Method: PREINCUBATION",inactive; negative
same,mutagenic call,[9],inactive; negative
Cc1ccncc1,mutagenic call,[1],inactive; negative
same,mutagenic call,[2],inactive; negative
same,mutagenic call,[3],inactive; negative
same,mutagenic call,[4],inactive; negative
same,mutagenic call,[5],inactive; negative
same,mutagenic call,[6],inactive; negative
same,mutagenic call,"Test System: AMES SALMONELLA TYPHIMURIUM, Strain/Indicator: TA102, Metabolic Activation: NONE, Method: STANDARD PLATE",inactive; negative
same,mutagenic call,"Test System: AMES SALMONELLA TYPHIMURIUM, Strain/Indicator: TA102, Metabolic Activation: RAT, LIVER, S-9, AROCLOR 1254, Method: STANDARD PLATE",inactive; negative
Cc1cccc(NC(=O)c2csc([N+](=O)[O-])c2)c1,mutagenic call,[3],active; positive
same,mutagenic call,[5],active; positive
CCCCOC(=O)CCC,mutagenic call,"Test System: AMES SALMONELLA TYPHIMURIUM, Strain/Indicator: TA97, Metabolic Activation: NONE, Method: PREINCUBATION",inactive; negative
same,mutagenic call,"Test System: AMES SALMONELLA TYPHIMURIUM, Strain/Indicator: TA97, Metabolic Activation: RAT, LIVER, S-9, AROCLOR 1254, Method: PREINCUBATION",inactive; negative
same,mutagenic call,"Test System: AMES SALMONELLA TYPHIMURIUM, Strain/Indicator: TA102, Metabolic Activation: NONE, Method: PREINCUBATION",inactive; negative
same,mutagenic call,"Test System: AMES SALMONELLA TYPHIMURIUM, Strain/Indicator: TA102, Metabolic Activation: RAT, LIVER, S-9, AROCLOR 1254, Method: PREINCUBATION",inactive; negative
Cc1ccc(NO)cc1,mutagenic call,"Test System: AMES SALMONELLA TYPHIMURIUM, Strain/Indicator: TA98, Metabolic Activation: RAT, LIVER, S-9, AROCLOR 1254, Method: PREINCUBATION",inactive; negative
same,mutagenic call,[10],active; positive
same,mutagenic call,"Test System: AMES SALMONELLA TYPHIMURIUM, Strain/Indicator: TA100, Metabolic Activation: RAT, LIVER, S-9, PCB, Method: PREINCUBATION",active; positive
same,mutagenic call,"Test System: E. COLI, Strain/Indicator: WP2 UVRA, Metabolic Activation: NONE, Method: FLUCTUATION TEST",active; positive
ClCOCCl,mutagenic call,"Test System: AMES SALMONELLA TYPHIMURIUM, Strain/Indicator: G46, Metabolic Activation: NONE, Method: STANDARD PLATE",active; positive
Clc1cccc2oc3ccccc3c12,mutagenic call,[3],inactive; negative
same,mutagenic call,"Test System: AMES SALMONELLA TYPHIMURIUM, Strain/Indicator: TA98, Metabolic Activation: RAT, LIVER, S-9, PHENOBARBITAL AND NAPHTHOFLAVONE, Method: STANDARD PLATE",inactive; negative
same,mutagenic call,[5],inactive; negative
same,mutagenic call,"Test System: AMES SALMONELLA TYPHIMURIUM, Strain/Indicator: TA100, Metabolic Activation: RAT, LIVER, S-9, PHENOBARBITAL AND NAPHTHOFLAVONE, Method: STANDARD PLATE",inactive; negative
Cc1ccccc1C1=C(C(=O)O)O1,mutagenic call,[5],inactive; negative
